A word on the IC50: it is the concentration at which inhibition is half-maximal. For orientation: EC50 means the concentration that produces a half-maximal response. A higher EC50 goes with lower potency in that assay.

This note sets out measurements from patent publication US20250163057A1, “DCN-1 MODULATING COMPOUNDS AND METHODS OF USE THEREOF” (Cellarity, Inc., priority 2023, published 2025).

Read-outs that look alike come from different tables or passages of the source.

Experiment [1] concerns Cullin-3 (CUL3) neddylation. The experiment is described as follows: AlphaLISA assay for Cullin-3 (CUL3) neddylation in TF 1 cells. Conditions: Homo sapiens, TF-1, 3 h, 3 hours treatment. Type of experiment: cell-based. The gist of the method:
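Neddylated CUL3 was quantified by AlphaLISA in lysates of TF 1 cells exposed for 3 h to test compound in IMDM without supplements. Percent inhibition set between vehicle and 1 μM DI-1548 positive control; IC50 derived by Hill-equation fitting of dose-response curves.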
On the technique in general: Alpha assays give light when donor and acceptor beads are brought close together.

Experiment [2] deals with fetal hemoglobin gene HBG1. In words: HBG1 Nanostring Assay in CD34+ HSPC erythroid differentiation culture. The note with it: for EC50: Homo sapiens, 240 h, HBG1 induction, Day10 of erythroid differentiation; for Nanostring Ymax obs (%): relative to a control compound (C1). Type of experiment: cell-based, human. In a few lines:
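HBG1 counts came from direct nCounter hybridization (67° C, 22 h) of day-10 lysates, normalized to ERCC positive controls and a housekeeping gene, giving EC50 and Ymax versus a reference compound. Compounds in 0.1% DMSO were present from day −2 while cells underwent EPO/SCF/IL-3 erythroid differentiation, with IL-3 dropped at day 7, at 37° C.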

In another experiment the target is DCN1 protein (Homo sapiens (Human), UniProt Q96GG9). The experiment is described as follows: Intact Protein MS Analysis with the RapidFire-TOF System (covalent adduct formation). Type of experiment: binding. The note with it: MS Emax; 400 nM DCN1, 3 hours at room temperature. The gist of the method:
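Tag-cleaved human DCN1 (400 nM) expressed in E. coli, in 25 mM Tris-HCl, 200 mM NaCl, 1 mM DTT, was incubated with 11 compound concentrations for 3 h at room temperature and quenched with 0.2% formic acid. Intact-protein Q-TOF MS with deconvolution detected the compound adduct mass.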

Experiment [3] deals with DCN1 (DCUND1) protein PONY domain (Homo sapiens (Human), UniProt Q96GG9). The experiment is described as follows: TR-FRET assay, DCN1 binding with FAM-labeled probe. In a few lines: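 Biotinylated DCN1 PONY domain, labeled with streptavidin-Tb, was competed against a FAM-labeled non-covalent DCN1 inhibitor probe in buffer with TritonX and 200 mM NaCl. Conditions were 5 nM DCN1 with 20 nM FAM-probe, or 0.31 nM DCN1 with 100 nM FAM-plus 800 nM unlabeled probe. The TR-FRET ratio was read at 1, 5 and 24 h (0.1% DMSO).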
For orientation: In TR-FRET formats the signal depends on donor and acceptor labels being close together.

The mark [4] stands for this setting: 24 hr after treatment with compound, read-out: TR FRET IC50 24 hr.
Where [5] appears, read: TR FRET IC50 1 hr (nM), 1 hr after treatment with compound.
Setting [6] is: read-out: TR FRET IC50 1 hr, 1 hr after treatment with compound.

Sequence of DCN1 protein (Q96GG9 whole entry): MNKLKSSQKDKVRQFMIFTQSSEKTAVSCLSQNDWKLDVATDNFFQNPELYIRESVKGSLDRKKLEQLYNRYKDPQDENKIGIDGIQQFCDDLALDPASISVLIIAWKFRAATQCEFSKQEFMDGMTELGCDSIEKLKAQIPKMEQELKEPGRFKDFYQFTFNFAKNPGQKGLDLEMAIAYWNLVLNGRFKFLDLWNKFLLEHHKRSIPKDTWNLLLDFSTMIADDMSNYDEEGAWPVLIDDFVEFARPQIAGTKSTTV
Sequence of DCN1 (DCUND1) protein PONY domain (Q96GG9 60-248): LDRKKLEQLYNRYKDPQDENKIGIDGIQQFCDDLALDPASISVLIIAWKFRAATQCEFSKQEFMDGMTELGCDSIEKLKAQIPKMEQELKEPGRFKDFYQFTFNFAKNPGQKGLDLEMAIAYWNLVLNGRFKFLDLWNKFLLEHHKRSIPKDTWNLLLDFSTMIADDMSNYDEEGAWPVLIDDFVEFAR

Consider `C=C(CC(=O)OC)C(=O)NCc1nn(-c2ccccc2)c2c1[C@H](c1ccc(F)cc1)[C@H](NC(=O)c1cccc(C(F)(F)F)c1)C(=O)N2CC` (racemic) [Compound I-103], for which the IC50 is greater than 1000 nM in experiment [1], 200 to 1000 nM in experiment [3] (setting [4]) and 200 to 1000 nM in experiment [3] (setting [5]). Further, the EC50 in experiment [2] was 100 to 1000 nM. The “Nanostring Ymax obs (%)” value in experiment [2] is “+ (Nanostring Ymax greater than or equal to 0.0 and less than or equal to 50.0)”. In addition, the “% Adduct Formation” value on DCN1 protein is “+ (MS Emax % adduct formation greater than or equal to 0.0 and less than or equal to 30.0)”.
For the compound `CCN1C(=O)[C@@H](NC(=O)c2cccc(C(F)(F)F)c2)[C@@H](c2ccc(F)cc2)c2c(CN(C)C(=O)/C=C/C(=O)OC)nn(-c3ccccc3)c21` (racemic) [Compound I-107, methyl (˜{E})-4-[[(4˜{R},5˜{S})-7-ethyl-4-(4-fluorophenyl)-6-oxo-1-phenyl-5-[[3-(trifluoromethyl)benzoyl]amino]-4,5-dihydropyrazolo[3,4-b]pyridine-3-yl]methyl-methyl-amino]-4-oxo-but-2-enoate], the IC50 is no more than 100 nM in experiment [1], no more than 200 nM in experiment [3] (setting [4]) and no more than 200 nM in experiment [3] (setting [6]). For the same compound, the EC50 in experiment [2] was no more than 100 nM. In addition, in experiment [2], the “Nanostring Ymax obs (%)” value is given as “+++ (Nanostring Ymax greater than 100.0)”. The “% Adduct Formation” value on DCN1 protein is “+++ (MS Emax % adduct formation greater than 80.0 and less than or equal to 100.0)”.
On to `CCN1C(=O)[C@@H](NC(=O)c2cccc(C(F)(F)F)c2)[C@@H](c2ccc(F)cc2)c2c(CN3CC=CS3(=O)=O)nn(-c3ccccc3)c21` (racemic) [Compound I-110], for which the figures for the IC50 in experiment [1], in experiment [3] (setting [4]) and in experiment [3] (setting [5]) were 100 to 1000 nM, 200 to 1000 nM and 200 to 1000 nM, respectively. Also, in experiment [2], the EC50 was greater than 1000 nM. The “Nanostring Ymax obs (%)” value in experiment [2] was “+ (Nanostring Ymax greater than or equal to 0.0 and less than or equal to 50.0)”. On DCN1 protein, the “% Adduct Formation” value was “+ (MS Emax % adduct formation greater than or equal to 0.0 and less than or equal to 30.0)”.
Take `C=CC(=O)Nc1nn(-c2ccccc2)c2c1[C@H](c1ccc(F)cc1)[C@H](NC(=O)c1cccc(C(F)(F)F)c1)C(=O)N2CC` (racemic) [Compound I-122]: the IC50 in experiment [1] is 100 to 1000 nM; in experiment [3] (setting [4]), no more than 200 nM; in experiment [3] (setting [6]), no more than 200 nM. In experiment [2], the EC50 is greater than 1000 nM. In addition, the “Nanostring Ymax obs (%)” value in experiment [2] is “++ (Nanostring Ymax greater than 50.0 and less than or equal to 100.0)”. For the same compound, the “% Adduct Formation” value at DCN1 protein is “++ (MS Emax % adduct formation greater than 30.0 and less than or equal to 80.0)”.
`CCN1C(=O)[C@@H](NC(=O)c2cccc(C(F)(F)F)c2)[C@@H](c2ccc(F)cc2)c2c(NC(=O)/C=C/C(=O)OC)nn(-c3ccccc3)c21` (racemic) [Compound I-136] had an IC50 in experiment [1] of no more than 100 nM. In addition, in experiment [2], the EC50 was greater than 1000 nM; the “Nanostring Ymax obs (%)” value is “+ (Nanostring Ymax greater than or equal to 0.0 and less than or equal to 50.0)”. For the same compound, on DCN1 protein, the “% Adduct Formation” value was “+++ (MS Emax % adduct formation greater than 80.0 and less than or equal to 100.0)”. In addition, in experiment [3] (setting [5]), the IC50 is 200 to 1000 nM.
As for `CCN1C(=O)[C@@H](NC(=O)c2cccc(C(F)(F)F)c2)[C@@H](c2ccc(F)cc2)c2c(CNC(=O)CC#N)nn(-c3ccccc3)c21` (racemic) [Compound I-147, rac-N-((4R,5R)-3-((2-cyanoacetamido)methyl)-7-ethyl-4-(4-fluorophenyl)-6-oxo-1-phenyl-4,5,6,7-tetrahydro-1H-pyrazolo[3,4-b]pyridine-5-yl)-3-(trifluoromethyl)benzamide], the IC50 in experiment [1] is 100 to 1000 nM; in experiment [3] (setting [4]) it was 200 to 1000 nM; in experiment [3] (setting [5]), 1000 to 3000 nM. This compound registered an EC50 in experiment [2] greater than 1000 nM. Further, the “Nanostring Ymax obs (%)” value in experiment [2] was “+ (Nanostring Ymax greater than or equal to 0.0 and less than or equal to 50.0)”. For the same compound, the “% Adduct Formation” value on DCN1 protein is “+ (MS Emax % adduct formation greater than or equal to 0.0 and less than or equal to 30.0)”.
For `CCN1C(=O)[C@@H](NC(=O)c2cccc(C(F)(F)F)c2)[C@@H](c2ccc(F)cc2)c2c(NC(=O)CCl)nn(-c3ccccc3)c21` (racemic) [Compound I-161], the IC50 in experiment [1] was no more than 100 nM; in experiment [3] (setting [4]), no more than 200 nM; in experiment [3] (setting [5]), 1000 to 3000 nM. Besides, the EC50 in experiment [2] lay in the range of 100 to 1000 nM. Also, the “Nanostring Ymax obs (%)” value in experiment [2] was “++ (Nanostring Ymax greater than 50.0 and less than or equal to 100.0)”. The “% Adduct Formation” value at DCN1 protein is “+ (MS Emax % adduct formation greater than or equal to 0.0 and less than or equal to 30.0)”.
Take `CCN1C(=O)[C@@H](NC(=O)c2cccc(C(F)(F)F)c2)[C@@H](c2ccc(F)cc2)c2c(C(=O)N3CC(F)(F)C[C@H]3C#N)nn(-c3ccccc3)c21` (racemic) [Compound I-251, N-((4RS,5RS)-3-(I-2-cyano-4,4-difluoropyrrolidine-1-carbonyl)-7-ethyl-4-(4-fluorophenyl)-6-oxo-1-phenyl-4,5,6,7-tetrahydro-1H-pyrazolo[3,4-b]pyridine-5-yl)-3-(trifluoromethyl)benzamide]: the IC50 was no more than 100 nM in experiment [1], no more than 200 nM in experiment [3] (setting [4]) and no more than 200 nM in experiment [3] (setting [5]). In experiment [2], this compound returned an EC50 of 100 to 1000 nM. The “Nanostring Ymax obs (%)” value in experiment [2] is “++ (Nanostring Ymax greater than 50.0 and less than or equal to 100.0)”. In addition, on DCN1 protein, the “% Adduct Formation” value was “+++ (MS Emax % adduct formation greater than 80.0 and less than or equal to 100.0)”.
As to `CCN1C(=O)[C@@H](NC(=O)c2cccc(C(F)(F)F)c2)[C@@H](C2CC2)c2c(C(=O)N3CCNC[C@@H]3C#N)nn(C3CCOCC3)c21` (single isomer, unassigned) [Compound I-371], the IC50 in experiment [1] is no more than 100 nM; in experiment [3] (setting [4]) it was no more than 200 nM; in experiment [3] (setting [5]), 200 to 1000 nM. Also, the EC50 in experiment [2] is 100 to 1000 nM. The “Nanostring Ymax obs (%)” value in experiment [2] is “++ (Nanostring Ymax greater than 50.0 and less than or equal to 100.0)”. Besides, the “% Adduct Formation” value on DCN1 protein was “+++ (MS Emax % adduct formation greater than 80.0 and less than or equal to 100.0)”.
Regarding `CCN1C(=O)[C@H](NC(=O)c2cccc(C(F)(F)F)c2)[C@H](c2ccc(F)cc2)c2c([C@@H](C)NC#N)nn(-c3ccccc3)c21` [Compound I-13, N-((4R,5R)-3-((R)-1-cyanamidoethyl)-7-ethyl-4-(4-fluorophenyl)-6-oxo-1-phenyl-4,5,6,7-tetrahydro-1H-pyrazolo[3,4-b]pyridin-5-yl)-3-(trifluoromethyl)benzamide], the IC50 in experiment [1] lay in the range of 100 to 1000 nM; in experiment [3] (setting [4]) it was 1000 to 3000 nM; in experiment [3] (setting [5]) it was 1000 to 3000 nM. The same compound registered an EC50 in experiment [2] greater than 1000 nM. For the same compound, in experiment [2], the “Nanostring Ymax obs (%)” value was “+ (Nanostring Ymax greater than or equal to 0.0 and less than or equal to 50.0)”. At DCN1 protein, the “% Adduct Formation” value is “++ (MS Emax % adduct formation greater than 30.0 and less than or equal to 80.0)”.
On to `CCN1C(=O)[C@H](NC(=O)c2cccc(C(F)(F)F)c2)[C@H](c2ccc(F)cc2)c2c(CN(C)C#N)nn(-c3ccccc3)c21` [Compound I-20], for which the IC50 was greater than 1000 nM in experiment [1], 1000 to 3000 nM in experiment [3] (setting [4]) and 1000 to 3000 nM in experiment [3] (setting [5]). In experiment [2], this compound returned a concentration for a half-maximal effect (EC50) greater than 1000 nM. Moreover, the “Nanostring Ymax obs (%)” value in experiment [2] is “+ (Nanostring Ymax greater than or equal to 0.0 and less than or equal to 50.0)”. At DCN1 protein, the “% Adduct Formation” value was “++ (MS Emax % adduct formation greater than 30.0 and less than or equal to 80.0)”.
For `C=C(C(=O)O)c1nn(-c2ccccc2)c2c1[C@@H](c1ccc(F)cc1)[C@@H](NC(=O)c1cccc(C(F)(F)F)c1)C(=O)N2CC` [Compound I-77, 2-((4R,5R)-7-ethyl-4-(4-fluorophenyl)-6-oxo-1-phenyl-5-(3-(trifluoromethyl)benzamido)-4,5,6,7-tetrahydro-1H-pyrazolo[3,4-b]pyridin-3-yl)acrylic acid], the IC50 is greater than 1000 nM in experiment [1], 1000 to 3000 nM in experiment [3] (setting [4]) and 1000 to 3000 nM in experiment [3] (setting [5]). Moreover, the EC50 in experiment [2] is greater than 1000 nM. Besides, in experiment [2], the “Nanostring Ymax obs (%)” value was “+ (Nanostring Ymax greater than or equal to 0.0 and less than or equal to 50.0)”. In addition, at DCN1 protein, the “% Adduct Formation” value is “+ (MS Emax % adduct formation greater than or equal to 0.0 and less than or equal to 30.0)”.
For the compound `CCN1C(=O)[C@@H](NC(=O)c2cccc(C(F)(F)F)c2)[C@H](c2ccc(F)cc2)c2c(CNC(=O)/C=C(\C)C(=O)OC)nn(-c3ccccc3)c21` [Compound I-104], the IC50 in experiment [1] is 100 to 1000 nM; in experiment [3] (setting [4]) it was 200 to 1000 nM; in experiment [3] (setting [5]), 200 to 1000 nM. For the same compound, the EC50 in experiment [2] was greater than 1000 nM. Moreover, in experiment [2], the “Nanostring Ymax obs (%)” value is “++ (Nanostring Ymax greater than 50.0 and less than or equal to 100.0)”. The “% Adduct Formation” value at DCN1 protein was “+ (MS Emax % adduct formation greater than or equal to 0.0 and less than or equal to 30.0)”.
